# In patent US11401256B2, “Dihydroquinolinones for medical treatment” (C4 Therapeutics, Inc., priority 2017, dated 2022):
# Molecular target: h-Cereblon_DDB1 (hCereblon(M1-L442)_hDDB1(M1-H1140)) (Homo sapiens (Human), UniProt Q96SW2)
# Test: Fluorescence direct binding (tryptophan fluorescence titration)
# Details: 20° C., excitation 280 nm, emission 340 nm, 1:1 protein-ligand complex; read-out: Fluorescence h-Cereblon_DDB1 Mean Kd_EQ
# Experimental: Determination of the affinities of compounds to protein containing one or more tryptophan is measurable by monitoring the fluorescence emission in direct mode. The measurements depending on the protein available amounts are performed either manually in a cuvette on ISS-PC1 photon counting spectrofluorometer or automatically in well plates on a fluorescence plate reader device. Fluorescence titrations are performed at 20° C. in the chosen binding assay buffer by using a defined constant protein concentration against ligand concentration variations. Small aliquots of known ligand concentration solubilized in DMSO were added and the fluorescence, excited at 280 nm, was recorded at 340 nm. The fluorescence intensity was corrected for protein dilution and for the filter effect (Birdsall et al.^37). The corrected fluorescence intensity was plotted against the ligand concentration and fitted using a four-parameter sigmoidal function, from which the equilibrium dissociation constant Kd was computed using the law of mass action assuming a 1:1 protein-ligand complex (Eftink, 1997^38).
# Process • 1) Optimization of measurement parameters to minimize protein consumption and to minimize the dilution effect and the DMSO content • 2) Titration measurements of the protein against ligand by at least 12 titration steps to obtain a good s-curve fit • 3) Repeat the same titration measurements with the ligand alone to enable correction • 4) Check the stability of the protein once by titration against DMSO alone • 5) Determination of the molar extinction coefficients of the ligand at 280 and 340 nm with help of a UV-spectrophotometer • 6) Use Excel template for the correction of the measured raw data • 7) Use GraphPad Prism software for the quadratic binding fit and the Kd evaluation.
# Chain of h-Cereblon_DDB1 (hCereblon(M1-L442)_hDDB1(M1-H1140)) (Q96SW2 whole entry): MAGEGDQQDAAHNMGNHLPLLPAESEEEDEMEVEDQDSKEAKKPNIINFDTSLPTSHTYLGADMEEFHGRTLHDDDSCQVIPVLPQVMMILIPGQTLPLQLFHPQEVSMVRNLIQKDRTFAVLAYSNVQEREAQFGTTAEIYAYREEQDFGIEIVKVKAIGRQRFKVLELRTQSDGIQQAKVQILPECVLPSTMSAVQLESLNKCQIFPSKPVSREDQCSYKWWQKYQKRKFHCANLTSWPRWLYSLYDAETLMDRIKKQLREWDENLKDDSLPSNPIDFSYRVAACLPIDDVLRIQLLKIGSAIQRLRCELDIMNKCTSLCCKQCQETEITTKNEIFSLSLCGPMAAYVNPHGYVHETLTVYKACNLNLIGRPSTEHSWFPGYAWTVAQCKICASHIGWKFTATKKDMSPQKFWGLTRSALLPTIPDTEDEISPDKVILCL
# Chain of h-Cereblon_DDB1 (hCereblon(M1-L442)_hDDB1(M1-H1140)) (Q16531 whole entry partner): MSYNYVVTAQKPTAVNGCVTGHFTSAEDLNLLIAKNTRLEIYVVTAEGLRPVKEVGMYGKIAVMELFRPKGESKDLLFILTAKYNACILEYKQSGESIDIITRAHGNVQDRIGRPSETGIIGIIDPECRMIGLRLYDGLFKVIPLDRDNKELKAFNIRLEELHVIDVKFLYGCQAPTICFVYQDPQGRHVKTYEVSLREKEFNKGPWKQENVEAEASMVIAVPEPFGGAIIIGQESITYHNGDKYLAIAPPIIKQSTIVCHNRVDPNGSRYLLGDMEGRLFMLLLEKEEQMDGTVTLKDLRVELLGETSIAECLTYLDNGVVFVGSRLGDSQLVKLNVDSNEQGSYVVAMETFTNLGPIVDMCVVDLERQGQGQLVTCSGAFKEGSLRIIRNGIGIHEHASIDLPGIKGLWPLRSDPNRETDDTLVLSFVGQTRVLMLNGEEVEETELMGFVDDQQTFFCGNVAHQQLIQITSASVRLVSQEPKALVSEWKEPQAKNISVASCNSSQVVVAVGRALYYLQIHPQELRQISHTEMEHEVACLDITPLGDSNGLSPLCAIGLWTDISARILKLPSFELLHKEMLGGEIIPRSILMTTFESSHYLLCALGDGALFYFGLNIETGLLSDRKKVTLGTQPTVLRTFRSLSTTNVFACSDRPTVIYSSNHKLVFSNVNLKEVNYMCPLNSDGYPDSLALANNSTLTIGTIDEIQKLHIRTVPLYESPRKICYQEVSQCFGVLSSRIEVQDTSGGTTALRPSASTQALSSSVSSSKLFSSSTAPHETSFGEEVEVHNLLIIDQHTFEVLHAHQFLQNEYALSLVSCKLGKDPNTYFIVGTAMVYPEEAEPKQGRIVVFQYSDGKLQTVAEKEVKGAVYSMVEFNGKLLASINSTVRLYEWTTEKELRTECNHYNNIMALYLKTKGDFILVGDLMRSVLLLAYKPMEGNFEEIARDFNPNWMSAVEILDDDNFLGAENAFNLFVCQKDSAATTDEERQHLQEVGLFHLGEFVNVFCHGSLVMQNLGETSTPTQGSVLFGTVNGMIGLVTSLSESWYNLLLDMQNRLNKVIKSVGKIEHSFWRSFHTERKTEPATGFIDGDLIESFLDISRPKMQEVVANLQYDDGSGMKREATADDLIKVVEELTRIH
row,SMILES,Kd [nM]
1,"CNC(=O)c1ccc2c(c1)nc(CO)n2-c1ccc2c(c1)CCC(=O)N2 [Example 15, 2-(Hydroxymethyl)-N-methyl-1-(2-oxo-1,2,3,4-tetrahydroquinolin-6-yl)-1H-benzo[d]imidazole-5-carboxamide]",11
2,"Cc1sc2c(c1C)C(c1ccc(Cl)cc1)=N[C@@H](CC(=O)NCCCCCNC(=O)c1ccc3c(c1)nc(-c1cc(-c4cncn4C)nc4ccccc14)n3-c1ccc3c(c1)CCC(=O)N3)c1nnc(C)n1-2 [Example B, N-(5-(2-((6S)-4-(4-Chlorophenyl)-2,3,9-trimethyl-6H-thieno[3,2-f][1,2,4]triazolo[4,3-a][1,4]diazepin-6-yl)acetamido)pentyl)-2-(2-(1-methyl-1H-imidazol-5-yl)quinolin-4-yl)-1-(2-oxo-1,2,3,4-tetrahydroquinolin-6-yl)-1H-benzo[d]imidazole-5-carboxamide]",258
3,"CC(C)c1nc2ccccc2n1-c1ccc2c(c1)CNC(=O)N2 [Example 61, 6-(2-Isopropyl-1H-benzo[d]imidazol-1-yl)-3,4-dihydroquinazolin-2(1H)-one]",171
4,"CNC(=O)c1ccc2c(c1)nc(C(C)C)n2-c1ccc2c(c1)CNC(=O)N2 [Example 62, 2-Isopropyl-N-methyl-1-(2-oxo-1,2,3,4-tetrahydroquinazolin-6-yl)-1H-benzo[d]imidazole-5-carboxamide]",120
5,"CNC(=O)c1ccc2c(c1)nc(-c1ccc(OC)nc1)n2-c1ccc2c(c1)CCC(=O)N2 [Example 24, 2-(6-Methoxypyridin-3-yl)-N-methyl-1-(2-oxo-1,2,3,4-tetrahydroquinolin-6-yl)-1H-benzo[d]imidazole-5-carboxamide]",12
6,"CNC(=O)c1ccc2c(c1)nc(Cc1ccc(C(F)(F)F)cc1OC)n2-c1ccc2c(c1)CCC(=O)N2 [Example 47, 2-[[2-Methoxy-4-(trifluoromethyl)phenyl]methyl]-N-methyl-1-(2-oxo-3,4-dihydro-1H-quinolin-6-yl)benzimidazole-5-carboxamide]",17
7,"COC(=O)c1ccc2c(c1)nc(-c1ccnc(OC)c1)n2-c1ccc2c(c1)CCC(=O)N2 [Example 22, Methyl 2-(2-methoxypyridin-4-yl)-1-(2-oxo-1,2,3,4-tetrahydroquinolin-6-yl)-1H-benzo[d]imidazole-5-carboxylate]",4
8,"CNC(=O)c1ccc2c(c1)nc(-c1cc(OC)ccc1F)n2-c1ccc2c(c1)CCC(=O)N2 [Example 35, 2-(2-Fluoro-5-methoxy-phenyl)-N-methyl-1-(2-oxo-3,4-dihydro-1H-quinolin-6-yl)benzimidazole-5-carboxamide]",14
9,"CC(=O)N1CCC(NC(=O)c2ccc3c(c2)CCC(=O)N3)CC1 [Example 57, N-(1-Acetyl-4-piperidyl)-2-oxo-3,4-dihydro-1H-quinoline-6-carboxamide]",41
10,"CNC(=O)c1ccc2c(c1)nc(-c1cc(OC)ncc1F)n2-c1ccc2c(c1)CCC(=O)N2 [Example 44, 2-(5-Fluoro-2-methoxy-4-pyridyl)-N-methyl-1-(2-oxo-3,4-dihydro-1H-quinolin-6-yl)benzimidazole-5-carboxamide]",10
11,"COC(=O)c1ccc(Nc2ccc3c(c2)CCC(=O)N3)cc1 [Example 19, Methyl 4-((2-oxo-1,2,3,4-tetrahydroquinolin-6-yl)amino)benzoate]",30
12,"CNC(=O)c1ccc2c(c1)nc(-c1cc(OC)ccc1C)n2-c1ccc2c(c1)CCC(=O)N2 [Example 33, 2-(5-Methoxy-2-methyl-phenyl)-N-methyl-1-(2-oxo-3,4-dihydro-1H-quinolin-6-yl)benzimidazole-5-carboxamide]",45
13,"CNC(=O)c1ccc2c(c1)nc(-c1cccc(OC)n1)n2-c1ccc2c(c1)CCC(=O)N2 [Example 23, 2-(6-Methoxypyridin-2-yl)-N-methyl-1-(2-oxo-1,2,3,4-tetrahydroquinolin-6-yl)-1H-benzo[d]imidazole-5-carboxamide]",15
14,"CNC(=O)c1ccc2c(c1)nc(-c1cc(-c3cncn3C)nc3ccccc13)n2-c1ccc2c(c1)CCC(=O)N2 [Example 2, N-Methyl-2-[2-(3-methylimidazol-4-yl)-4-quinolyl]-1-(2-oxo-3,4-dihydro-1H-quinolin-6-yl)benzimidazole-5-carboxamide]",40
15,"Cc1sc2c(c1C)C(c1ccc(Cl)cc1)=N[C@@H](CC(=O)NCCOCCOCCNC(=O)c1ccc3c(c1)nc(-c1cc(-c4cncn4C)nc4ccccc14)n3-c1ccc3c(c1)CCC(=O)N3)c1nnc(C)n1-2 [Example C, N-(2-(2-(2-(2-((6S)-4-(4-Chlorophenyl)-2,3,9-trimethyl-6H-thieno[3,2-f][1,2,4]triazolo[4,3-a][1,4]diazepin-6-yl)acetamido)ethoxy)ethoxy)ethyl)-2-(2-(1-methyl-1H-imidazol-5-yl)quinolin-4-yl)-1-(2-oxo-1,2,3,4-tetrahydroquinolin-6-yl)-1H-benzo[d]imidazole-5-carboxamide]",524
16,"Cc1sc2c(c1C)C(c1ccc(Cl)cc1)=N[C@@H](CC(=O)NCCCCCCCCCCNC(=O)c1ccc3c(c1)nc(-c1cc(-c4cncn4C)nc4ccccc14)n3-c1ccc3c(c1)CCC(=O)N3)c1nnc(C)n1-2 [Example A, N-(10-(2-((6S)-4-(4-Chlorophenyl)-2,3,9-trimethyl-6H-thieno[3,2-f][1,2,4]triazolo[4,3-a][1,4]diazepin-6-yl)acetamido)decyl)-2-(2-(1-methyl-1H-imidazol-5-yl)quinolin-4-yl)-1-(2-oxo-1,2,3,4-tetrahydroquinolin-6-yl)-1H-benzo[d]imidazole-5-carboxamide]",338

# Other lines, results leading:
row,Kd [nM],SMILES
1,3,"O=C1CCc2cc(C(=O)N3CCc4cccnc43)cnc2N1 [Example 59, 6-(2,3-Dihydropyrrolo[2,3-b]pyridine-1-carbonyl)-3,4-dihydro-1H-1,8-naphthyridin-2-one]"
2,4,"O=C1CCc2cc(NC(=O)C3CCCc4ccccc43)cnc2N1 (racemic) [Example 21, (RS)—N-(7-Oxo-5,6,7,8-tetrahydro-1,8-naphthyridin-3-yl)-1,2,3,4-tetrahydronaphthalene-1-carboxamide]"
3,23,"O=C1CCc2cc(C(=O)N3CCc4cccnc43)ccc2N1 [Example 55, 6-(2,3-Dihydropyrrolo[2,3-b]pyridine-1-carbonyl)-3,4-dihydro-1H-quinolin-2-one]"
4,16,"O=C1CCc2ccc(-n3ccnc3)cc2N1 [Example 53, 7-(1H-Imidazol-1-yl)-3,4-dihydroquinolin-2(1H)-one]"
5,1,"O=C1CCc2cc(C(=O)N3CCCc4ccccc43)cnc2N1 [Example 60, 6-(3,4-Dihydro-2H-quinoline-1-carbonyl)-3,4-dihydro-1H-1,8-naphthyridin-2-one]"
6,35,"CNC(=O)c1ccc2c(c1)nc(-c1ccnc(OC)c1)n2-c1cnc2c(c1)CCC(=O)N2 [Example 29, 2-(2-Methoxy-4-pyridyl)-N-methyl-1-(7-oxo-6,8-dihydro-5H-1,8-naphthyridin-3-yl)benzimidazole-5-carboxamide]"
7,62,"O=C1CCc2cc(C(=O)N3CCc4ccccc43)cnc2N1 [Example 58, 6-(Indoline-1-carbonyl)-3,4-dihydro-1H-1,8-naphthyridin-2-one]"
8,16,"O=C1CCc2cc(-n3ccnc3)cnc2N1 [Example 9, 6-(1H-Imidazol-1-yl)-3,4-dihydro-1,8-naphthyridin-2(1H)-one]"
9,677,Cn1cncc1-c1cc(C(=O)Nc2ccc3c(c2)CCC(=O)N3)c2ccccc2n1 [Example 5]
